This is an account of results in patent US20250195521A1 (Revolution Medicines, Inc., priority 2020, published 2025).

The structures appear in SMILES notation. Some results are limits rather than exact numbers.

By IC50 is commonly meant the concentration needed to halve the response being measured. One may read the EC50 as the concentration that produces a half-maximal response.

In assay [1] the target is NRAS WT binding to BRAF RBD (Homo sapiens (Human), UniProt P01111+P62937). The assay is described as follows: Ras-Raf disruption/FRET/MOA assay, NRAS WT. Format: biochemical. The text has this: (§1) Disruption of B-Raf Ras-binding Domain (BRAF^RBD) Interaction with K-Ras by Compounds of the Invention (also called a FRET assay or an MOA assay)
Sequence of NRAS WT binding to BRAF RBD (P01111 whole entry, the tested form may be a part): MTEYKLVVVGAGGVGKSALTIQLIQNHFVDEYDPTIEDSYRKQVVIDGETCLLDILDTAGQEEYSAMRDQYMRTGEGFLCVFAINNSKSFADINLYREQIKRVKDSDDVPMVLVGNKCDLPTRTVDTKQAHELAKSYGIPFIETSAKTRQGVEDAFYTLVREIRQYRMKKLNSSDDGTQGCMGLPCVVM
Sequence of NRAS WT binding to BRAF RBD (P62937 whole entry, the tested form may be a part): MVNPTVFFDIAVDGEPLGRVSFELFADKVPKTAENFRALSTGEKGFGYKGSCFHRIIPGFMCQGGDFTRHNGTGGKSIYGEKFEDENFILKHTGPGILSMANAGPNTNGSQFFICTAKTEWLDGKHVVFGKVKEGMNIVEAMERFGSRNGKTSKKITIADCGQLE
(§2) Note—The following protocol describes a procedure for monitoring disruption of K-Ras G12C(GMP-PNP) binding to BRAF^RBD by a compound of the invention. This protocol may also be executed substituting other Ras proteins or nucleotides.
(§3) The purpose of this biochemical assay was to measure the ability of test compounds to facilitate ternary complex formation between a nucleotide-loaded K-Ras isoform and Cyclophilin A; the resulting ternary complex disrupts binding to a BRAF^RBD construct, inhibiting K-Ras signaling through a RAF effector. Data is reported as IC50 values.
(§4) In assay buffer containing 25 mM HEPES pH 7.3, 0.002% Tween20, 0.1% BSA, 100 mM NaCl and 5 mM MgCl2, tagless Cyclophilin A, His6-K-Ras-GMPPNP, and GST-BRAF^RBD were combined in a 384-well assay plate at final concentrations of 25 μM, 12.5 nM and 50 nM, respectively. Compound was present in plate wells as a 10-point 3-fold dilution series starting at a final concentration of 30 μM. After incubation at 25° C. for 3 hours, a mixture of Anti-His Eu—W1024 and anti-GST allophycocyanin was then added to assay sample wells at final concentrations of 10 nM and 50 nM, respectively, and the reaction incubated for an additional 1.5 hours. […] Compounds that facilitate disruption of a K-Ras: RAF complex were identified as those eliciting a decrease in the TR-FRET ratio relative to DMSO control wells.

Assay [2] has as its target NRAS Q61R binding to BRAF RBD (Homo sapiens (Human), UniProt P01111+P62937, Q61R). The assay is described as follows: Ras-Raf disruption/FRET/MOA assay, NRAS Q61R. Type of assay: biochemical.
Text: as §1, §2, §3, §4

For assay [3], the target named is NRAS Q61K binding to BRAF RBD (Homo sapiens (Human), UniProt P01111+P62937, Q61K). Description: Ras-Raf disruption/FRET/MOA assay, NRAS Q61K. Format: biochemical.
Sequence of NRAS Q61K binding to BRAF RBD (P01111 whole entry Q61K): as the sequence (P01111 whole entry, the tested form may be a part) above, with Q61K counted along it
Sequence of NRAS Q61K binding to BRAF RBD (P62937 whole entry): as the sequence (P62937 whole entry, the tested form may be a part) above
Text: as §1, §2, §3, §4

Assay [4] deals with K-Ras G12C (NCI-H358 cells). The assay is described as follows: Potency assay: pERK in NCI-H358 cells. Type of assay: cell-based, human. The note with it: Homo sapiens; NCI-H358 cells, 4 hours; read-out: pERK EC50 (H358 KRAS G12C). The essentials: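 Cells plated the day before were exposed for 4 h at 37° C, 5% CO2 to a 10-point, 3-fold DMSO dilution series (10 mM top stock), in duplicate. Phospho-ERK was read by AlphaLISA SureFire Ultra or by In-Cell Western with DRAQ5 DNA stain, and IC50 came from a 4-parameter sigmoidal fit.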

Assay [5] addresses NRAS G12C binding to BRAF RBD (Homo sapiens (Human), UniProt P01111+P62937, G12C). Description: Ras-Raf disruption/FRET/MOA assay, NRAS G12C. Format: biochemical. In short, it runs like this:
(§5)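 TR-FRET ratio drop relative to DMSO wells marks disruption of the Ras–RAF complex, reported as IC50. Compounds promote a Ras(nucleotide)–cyclophilin A ternary complex that blocks BRAF RBD binding; dosing was 10 points, 3-fold, top 30 μM final, 3 h at 25° C before detection.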

Assay [6] deals with KRAS Q61H binding to BRAF RBD (Homo sapiens (Human), UniProt P01116+P62937, Q61H). The assay is described as follows: Ras-Raf disruption/FRET/MOA assay, KRAS Q61H. Format: biochemical.
Sequence of KRAS Q61H binding to BRAF RBD (P01116 other isoform, or with tags, fused parts or gaps Q61H): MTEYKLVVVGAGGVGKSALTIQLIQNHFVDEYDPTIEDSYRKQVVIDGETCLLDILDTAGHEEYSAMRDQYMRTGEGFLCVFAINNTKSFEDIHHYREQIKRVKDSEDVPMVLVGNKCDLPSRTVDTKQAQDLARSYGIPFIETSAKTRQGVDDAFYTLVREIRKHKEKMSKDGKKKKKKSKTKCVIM
Sequence of KRAS Q61H binding to BRAF RBD (P62937 whole entry): as the sequence (P62937 whole entry, the tested form may be a part) above
Text: as §1, §2, §3, §4

Assay [7] concerns the target KRAS G13D binding to BRAF RBD (Homo sapiens (Human), UniProt P01116+P62937, G13D). Description: Ras-Raf disruption/FRET/MOA assay, KRAS G13D. Format: biochemical. The essentials:
as §5

Assay [8] addresses K-Ras G12C(GMP-PNP) binding to BRAF RBD (Homo sapiens (Human), UniProt P01116+P62937, G12C). The assay is described as follows: Disruption of BRAF RBD interaction with K-Ras (FRET / MOA assay), K-Ras G12C. Format: biochemical. To be noted: read-out: KRAS G12C FRET IC50. In short, it runs like this:
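Cpd 10-pt 3-fold dilution, top 30 μM final; Ras/CypA/BRAF RBD mix 3 h, 25° C. Add anti-His Eu-W1024 10 nM + anti-GST APC 50 nM final, 1.5 h. Readout TR-FRET ratio decrease vs DMSO → IC50.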

For the next assay, the system named is NCI-H358 (K-Ras G12C). The assay is described as follows: CellTiter-Glo cell viability assay, NCI-H358. The note with it: Homo sapiens, NCI-H358, 120 h, 5-day treatment; read-out: H358 Cell Viability assay data (K-Ras G12C, IC50). Type of assay: cell-based, human. The essentials: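 Five-day compound treatment of NCI-H358 cells, then CellTiter-Glo luminescence, percent of DMSO, four-parameter logistic fit.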

For assay [9], the target named is KRAS G12S binding to BRAF RBD (Homo sapiens (Human), UniProt P01116+P62937, G12S). Description: Ras-Raf disruption/FRET/MOA assay, KRAS G12S. Format: biochemical.
Sequence of KRAS G12S binding to BRAF RBD (P01116 other isoform, or with tags, fused parts or gaps G12S): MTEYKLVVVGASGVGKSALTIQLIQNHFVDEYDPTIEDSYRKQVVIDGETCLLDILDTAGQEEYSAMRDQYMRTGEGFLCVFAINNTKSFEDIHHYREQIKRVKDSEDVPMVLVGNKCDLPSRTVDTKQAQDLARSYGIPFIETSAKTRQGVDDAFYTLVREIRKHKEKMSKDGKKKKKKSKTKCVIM
Sequence of KRAS G12S binding to BRAF RBD (P62937 whole entry): as the sequence (P62937 whole entry, the tested form may be a part) above
Text: as §2, §3
(§6) Compound was present in plate wells as a 10-point 3-fold dilution series starting at a final concentration of 30 μM. After incubation at 25° C. for 3 hours, a mixture of Anti-His Eu—W1024 and anti-GST allophycocyanin was then added to assay sample wells at final concentrations of 10 nM and 50 nM, respectively, and the reaction incubated for an additional 1.5 hours. […] Compounds that facilitate disruption of a K-Ras: RAF complex were identified as those eliciting a decrease in the TR-FRET ratio relative to DMSO control wells.

Assay [10] deals with KRAS G12V binding to BRAF RBD (Homo sapiens (Human), UniProt P01116+P62937, G12V). The assay is described as follows: Ras-Raf disruption/FRET/MOA assay, KRAS G12V. Type of assay: biochemical. The note with it: read-out: KRAS G12V FRET IC50.
Sequence of KRAS G12V binding to BRAF RBD (P01116 other isoform, or with tags, fused parts or gaps G12V): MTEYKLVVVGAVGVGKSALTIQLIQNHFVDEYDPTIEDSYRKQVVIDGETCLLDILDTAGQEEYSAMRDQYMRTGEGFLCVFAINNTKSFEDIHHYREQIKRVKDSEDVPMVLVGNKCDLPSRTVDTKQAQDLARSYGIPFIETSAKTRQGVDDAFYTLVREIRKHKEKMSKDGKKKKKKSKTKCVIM
Sequence of KRAS G12V binding to BRAF RBD (P62937 whole entry): as the sequence (P62937 whole entry, the tested form may be a part) above
Text: as §2, §3, §6

Sequence of K-Ras G12C(GMP-PNP) binding to BRAF RBD (P01116 other isoform, or with tags, fused parts or gaps G12C): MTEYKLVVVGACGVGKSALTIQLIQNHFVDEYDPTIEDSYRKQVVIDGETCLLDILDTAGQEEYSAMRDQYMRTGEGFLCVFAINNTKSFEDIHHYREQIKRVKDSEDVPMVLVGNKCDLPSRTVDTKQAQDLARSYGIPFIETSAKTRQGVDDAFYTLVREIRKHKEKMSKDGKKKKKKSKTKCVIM
Sequence of K-Ras G12C(GMP-PNP) binding to BRAF RBD (P62937 whole entry): as the sequence (P62937 whole entry, the tested form may be a part) above
Sequence of KRAS G13D binding to BRAF RBD (P01116 other isoform, or with tags, fused parts or gaps G13D): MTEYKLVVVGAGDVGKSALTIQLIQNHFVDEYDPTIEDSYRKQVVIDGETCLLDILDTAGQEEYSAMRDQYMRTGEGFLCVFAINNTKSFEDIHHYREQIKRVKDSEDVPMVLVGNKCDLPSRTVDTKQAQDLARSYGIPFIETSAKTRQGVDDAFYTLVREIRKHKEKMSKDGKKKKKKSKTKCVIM
Sequence of KRAS G13D binding to BRAF RBD (P62937 whole entry): as the sequence (P62937 whole entry, the tested form may be a part) above
Sequence of NRAS G12C binding to BRAF RBD (P01111 whole entry G12C): as the sequence (P01111 whole entry, the tested form may be a part) above, with G12C counted along it
Sequence of NRAS G12C binding to BRAF RBD (P62937 whole entry): as the sequence (P62937 whole entry, the tested form may be a part) above
Sequence of NRAS Q61R binding to BRAF RBD (P01111 whole entry Q61R): as the sequence (P01111 whole entry, the tested form may be a part) above, with Q61R counted along it
Sequence of NRAS Q61R binding to BRAF RBD (P62937 whole entry): as the sequence (P62937 whole entry, the tested form may be a part) above

As for `CC[C@@H](COC1CN(C(=O)C#CC(C)(C)N(C)C)C1)C(=O)N[C@H]1Cc2nc(cs2)-c2ccc3c(c2)c(c(-c2cccnc2[C@H](C)OC)n3CC)CC(C)(C)COC(=O)[C@@H]2CCCN(N2)C1=O` (atropisomer, axis not shown) [Compound A705], the concentration for half-maximal inhibition (IC50) in [1] is 1 to 10 µM; in assay [2] it was over 10 µM; in assay [3] it was 1 to 10 µM; in assay [5], under 0.01 µM; in [6] it was 1 to 10 µM; in assay [7] it was over 10 µM. In addition, the IC50 (in assay [8]; with NCI-H358 (K-Ras G12C)) was under 0.01 µM in each case. Moreover, in assay [4], the EC50 is under 5 µM.

On to `CCn1c(-c2cccnc2[C@H](C)OC)c2c3cc(ccc31)-c1cc(O)cc(c1)C[C@H](NC(=O)C(C1CC1)C1CC1)C(=O)N1CCC[C@H](N1)C(=O)OCC(C)(C)C2` [Compound A184], for which the figures for the IC50 in assay [9], in assay [10] and in assay [8] were 0.01 to 0.1 µM, 0.01 to 0.1 µM and under 0.01 µM, respectively.

For `CCn1c(-c2cccnc2[C@H](C)OC)c2c3cc(ccc31)-c1cccc(c1)C[C@H](NC(=O)[C@H](C(C)C)N1CC[C@@]3(CCN(C(=O)C#CC(C)(C)N4CCC4)C3)C1=O)C(=O)N1CCC[C@H](N1)C(=O)OCC(C)(C)C2` (atropisomer, axis not shown) [Compound A733], the IC50 in assay [1] was over 10 µM; in assay [2], over 10 µM; in assay [3], over 10 µM; in assay [5] it was 0.01 to 0.1 µM; in assay [6], 1 to 10 µM; in [7], over 10 µM. In addition, the IC50 in assay [8] was 0.01 to 0.1 µM; with NCI-H358 (K-Ras G12C), under 0.01 µM. For the same molecule, the EC50 in [4] was under 5 µM.
